# Source: patent publication US20110212169A1, “METHOD FOR PRODUCING POWDER CONTAINING NANOPARTICULATED SPARINGLY SOLUBLE DRUG, POWDER PRODUCED THEREBY AND PHARMACEUTICAL COMPOSITION CONTAINING SAME (As Amended)” (Amorepacific Corporation, priority 2008, published 2011)
# Assay: Particle size of drug after redispersion in distilled water (laser scattering particle size analyzer)
# Assay type: physicochemical
# Procedure: Each powder (0.01 g) was redispersed in distilled water (5 mL) and particle size was measured. Electron microscopic images of the powders when the concentration of the carageenan solution was 0.1 wt % and 2 wt % are shown in FIGS. 2a and 2b, respectively. The redispersion was conducted by lightly shaking the mixture with a hand. The particle size was measured under aqueous condition using a laser scattering particle size analyzer (LA 910, Horiba, Japan) (Mie & Fraunhofer, relative refraction index=1). The resolving power of the ultrasonic disperser used for the particle size measurement was 40 W (39 kHz), and the speed of stirring and circulation was 340 mL/min. The particle size measurement was made after performing ultrasonic dispersion for 1 minute.
smiles,measurement,setting,value
"C=CC[C@@H]1/C=C(\C)C[C@H](C)C[C@H](OC)[C@H]2O[C@@](O)(C(=O)C(=O)N3CCCC[C@H]3C(=O)O[C@H](/C(C)=C/[C@@H]3CC[C@@H](O)[C@H](OC)C3)[C@H](C)[C@@H](O)CC1=O)[C@H](C)C[C@@H]2OC [Tacrolimus, tacrolimus]",Average particle size,"carageenan 5 wt %, freeze dried powder redispersed in distilled water, different drugs",0.16 (±0.09) μm
COc1ccc2cc([C@H](C)C(=O)O)ccc2c1 [naproxen],Average particle size,"1 wt % carageenan, hot air drying at 40 °C, redispersed in distilled water",0.39 (±1.01) μm
same,Average particle size,"1 wt % carageenan, hot air drying at 60 °C, redispersed in distilled water",0.36 (±0.29) μm
same,drug particle size,"alginic acid 1 wt %, vacuum drying at room temperature, redispersed in distilled water",0.31 (±0.41)
same,drug particle size,"alginic acid 2 wt %, vacuum drying at room temperature, redispersed in distilled water",0.19 (±0.05)
same,Average particle size,"carageenan 0.1 wt %, freeze dried powder redispersed in distilled water",0.91 (±2.00) μm
same,Average particle size,"carageenan 0.5 wt %, freeze dried powder redispersed in distilled water",0.31 (±0.10) μm
same,Average particle size,"carageenan 0.5 wt %, vacuum drying at room temperature, redispersed in distilled water",0.36 (±0.71) μm
same,Average particle size,"carageenan 1 wt %, freeze dried powder redispersed in distilled water",0.28 (±0.08) μm
same,Average particle size,"carageenan 1 wt %, vacuum drying at room temperature, redispersed in distilled water",0.26 (±0.06) μm
same,Average particle size,"carageenan 2 wt %, freeze dried powder redispersed in distilled water",0.23 (±0.06) μm
same,Average particle size,"carageenan 2 wt %, vacuum drying at room temperature, redispersed in distilled water",0.21 (±0.06) μm
same,Average particle size,"carageenan 3 wt %, freeze dried powder redispersed in distilled water",0.26 (±0.07) μm
same,Average particle size,"carageenan 3 wt %, vacuum drying at room temperature, redispersed in distilled water",0.23 (±0.06) μm
same,Average particle size,"carageenan 5 wt %, freeze dried powder redispersed in distilled water",0.12 (±0.05) μm
same,drug particle size,"gelatin 1 wt %, freeze drying, redispersed in distilled water",0.45 (±0.89)
same,drug particle size,"gelatin 2 wt %, freeze drying, redispersed in distilled water",0.16 (±0.08)
same,drug particle size,"gelatin 3 wt %, freeze drying, redispersed in distilled water",0.13 (±0.06)
same,drug particle size,"gelatin 3 wt %, vacuum drying at room temperature, redispersed in distilled water",0.36 (±0.10)
same,drug particle size,"gelatin 5 wt %, freeze drying, redispersed in distilled water",0.16 (±0.05)
same,Average particle size,"naproxen concentration 16 wt %, carageenan 0.5 wt %, freeze dried, redispersed in distilled water",0.56 (±1.20) μm
same,Average particle size,"naproxen concentration 16 wt %, carageenan 1 wt %, freeze dried, redispersed in distilled water",0.22 (±0.07) μm
same,average particle size of the naproxen particles,slurry mixture after wet grinding (before drying) redispersed in distilled water,0.10 μm
